Results: patent publication US7906655B2, “Hepatitis C virus inhibitors” (Bristol-Myers Squibb Company, priority 2008, dated 2011)

Tested on: HCV 1b genotype
Assay: HCV Replicon assay (HCV-neo replicon cells, wild-type)
Format: cell-based
Conditions: HCV 1b genotype replicon, class symbols
Outline: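 Inhibition was measured in HCV-neo (genotype 1b) replicon cells. Some assay versions used luciferase reporters.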

SMILES: CC(=O)N1CCC[C@H]1c1nc2ccc(C#Cc3ccc4[nH]c([C@@H]5CCCN5C(=O)c5cccs5)nc4c3)cc2[nH]1 [Example M54.24, 5-((2-((2S)-1-acetyl-2-pyrrolidinyl)-1H-benzimidazol-6-yl)ethynyl)-2-((2S)-1-(2-thienylcarbonyl)-2-pyrrolidinyl)-1H-benzimidazole]
- EC50 (Hepatitis C virus): 4.57 to 99 nM

SMILES: CC(=O)N1CCC[C@H]1c1nc2ccc(C#Cc3ccc4[nH]c([C@@H]5CCCN5C(=O)[C@H]5CCCO5)nc4c3)cc2[nH]1 [Example M54.25, 5-((2-((2S)-1-acetyl-2-pyrrolidinyl)-1H-benzimidazol-6-yl)ethynyl)-2-((2S)-1-((2R)-tetrahydro-2-furanylcarbonyl)-2-pyrrolidinyl)-1H-benzimidazole]
- EC50 (Hepatitis C virus): 100 to 999 nM

SMILES: CC(=O)N1CCC[C@H]1c1nc2cc(C#Cc3ccc4[nH]c([C@@H]5CCCN5C(=O)OCc5ccccc5)nc4c3)ccc2[nH]1 [Example M54.26, benzyl (2S)-2-(5-((2-((2S)-1-acetyl-2-pyrrolidinyl)-1H-benzimidazol-5-yl)ethynyl)-1H-benzimidazol-2-yl)-1-pyrrolidine-carboxylate]
- EC50 (Hepatitis C virus): 4.57 to 99 nM

SMILES: CC(=O)N1CCC[C@H]1c1nc2ccc(C#Cc3ccc4[nH]c([C@@H]5CCCN5C(=O)[C@@H]5CCCN5C)nc4c3)cc2[nH]1 [Example M54.27, 5-((2-((2S)-1-acetyl-2-pyrrolidinyl)-1H-benzimidazol-6-yl)ethynyl)-2-((2S)-1-(1-methyl-L-prolyl)-2-pyrrolidinyl)-1H-benzimidazole]
- EC50 (Hepatitis C virus): 1000 to 10000 nM

SMILES: CC(=O)N1CCC[C@H]1c1nc2cc(C#Cc3ccc4nc([C@@H]5CCCN5C(C)=O)[nH]c4c3)ccc2[nH]1 [Example M54.28, 2-((2S)-1-acetyl-2-pyrrolidinyl)-5-((2-((2S)-1-acetyl-2-pyrrolidinyl)-1H-benzimidazol-6-yl)ethynyl)-1H-benzimidazole]
- EC50 (Hepatitis C virus): 100 to 999 nM

SMILES: CCC(=O)N1CCC[C@H]1c1nc2cc(C#Cc3ccc4nc([C@@H]5CCCN5C(C)=O)[nH]c4c3)ccc2[nH]1 [Example M54.29, 5-((2-((2S)-1-acetyl-2-pyrrolidinyl)-1H-benzimidazol-6-yl)ethynyl)-2-((2S)-1-propionyl-2-pyrrolidinyl)-1H-benzimidazole]
- EC50 (Hepatitis C virus): 100 to 999 nM

SMILES: CC(=O)N1CCC[C@H]1c1nc2ccc(C#Cc3ccc4[nH]c([C@@H]5CCCN5C(=O)C5CC5)nc4c3)cc2[nH]1 [Example M54.30, 5-((2-((2S)-1-acetyl-2-pyrrolidinyl)-1H-benzimidazol-6-yl)ethynyl)-2-((2S)-1-(cyclopropyl-carbonyl)-2-pyrrolidinyl)-1H-benzimidazole]
- EC50 (Hepatitis C virus): 100 to 999 nM

SMILES: CC(=O)N1CCC[C@H]1c1nc2ccc(C#Cc3ccc4[nH]c([C@@H]5CCCN5C(=O)C5CCC5)nc4c3)cc2[nH]1 [Example M54.31, 5-((2-((2S)-1-acetyl-2-pyrrolidinyl)-1H-benzimidazol-6-yl)ethynyl)-2-((2S)-1-(cyclobutyl-carbonyl)-2-pyrrolidinyl)-1H-benzimidazole]
- EC50 (Hepatitis C virus): 4.57 to 99 nM

SMILES: CC(=O)N1CCC[C@H]1c1nc2ccc(C#Cc3ccc4[nH]c([C@@H]5CCCN5C(=O)CC5CC5)nc4c3)cc2[nH]1 [Example M54.32, 5-((2-((2S)-1-acetyl-2-pyrrolidinyl)-1H-benzimidazol-6-yl)ethynyl)-2-((2S)-1-(cyclopropyl-acetyl)-2-pyrrolidinyl)-1H-benzimidazole]
- EC50 (Hepatitis C virus): 4.57 to 99 nM

SMILES: CC(=O)N1CCC[C@H]1c1nc2ccc(C#Cc3ccc4[nH]c([C@@H]5CCCN5C(=O)N5CCOCC5)nc4c3)cc2[nH]1 [Example M54.33, 5-((2-((2S)-1-acetyl-2-pyrrolidinyl)-1H-benzimidazol-6-yl)ethynyl)-2-((2S)-1-(4-morpholinyl-carbonyl)-2-pyrrolidinyl)-1H-benzimidazole]
- EC50 (Hepatitis C virus): 4.57 to 99 nM

SMILES: CC(=O)N1CCC[C@H]1c1nc2ccc(C#Cc3ccc4[nH]c([C@@H]5CCCN5C(=O)N5CCN(C)CC5)nc4c3)cc2[nH]1 [Example M55, 5-((2-((2S)-1-acetyl-2-pyrrolidinyl)-1H-benzimidazol-6-yl)ethynyl)-2-((2S)-1-((4-methyl-1-piperazinyl)carbonyl)-2-pyrrolidinyl)-1H-benzimidazole]
- EC50 (Hepatitis C virus): 100 to 999 nM

SMILES: CC(=O)N1CCC[C@H]1c1nc2cc(C#Cc3ccc4[nH]c([C@@H]5CCCN5C(=O)[C@@H](c5ccccc5)N(C)C)nc4c3)ccc2[nH]1 [Example M56, (1R)-2-((2S)-2-(5-((2-((2S)-1-acetyl-2-pyrrolidinyl)-1H-benzimidazol-5-yl)ethynyl)-1H-benzimidazol-2-yl)-1-pyrrolidinyl)-N,N-dimethyl-2-oxo-1-phenyl-ethanamine]
- EC50 (Hepatitis C virus): < 4.57 nM

SMILES: O=C(Cc1ccccc1)N1CCC[C@H]1c1nc2cc(C#CC#Cc3ccc4[nH]c([C@@H]5CCCN5C(=O)Cc5ccccc5)nc4c3)ccc2[nH]1 [Example M57, 5,5′-(1,3-butadiyne-1,4-diyl)bis(2-((2S)-1-(phenylacetyl)-2-pyrrolidinyl)-1H-benzimidazole)]
- EC50 (Hepatitis C virus): < 4.57 nM

SMILES: COC(=O)N[C@H](C(=O)N1CCC[C@H]1c1nc2cc(C#CC#Cc3ccc4[nH]c([C@@H]5CCCN5C(=O)[C@@H](NC(=O)OC)C(C)C)nc4c3)ccc2[nH]1)C(C)C [Example M57.1, Methyl((1S)-1-(((2S)-2-(5-(4-(2-((2S)-1-((2S)-2-((methoxycarbonyl)amino)-3-methylbutanoyl)-2-pyrrolidinyl)-1H-benzimidazol-5-yl)-1,3-butadiyn-1-yl)-1H-benzimidazol-2-yl)-1-pyrrolidinyl)carbonyl)-2-methylpropyl)carbamate]
- EC50 (Hepatitis C virus): < 4.57 nM

SMILES: COC(=O)N[C@H](C(=O)N1[C@@H]2C[C@@H]2C[C@H]1c1nc2cc(C#CC#Cc3ccc4[nH]c([C@@H]5C[C@H]6C[C@H]6N5C(=O)[C@@H](NC(=O)OC)C(C)C)nc4c3)ccc2[nH]1)C(C)C [Example M57.2, Methyl((1S)-1-(((1R,3S,5R)-3-(5-(4-(2-((1R,3S,5R)-2-((2S)-2-((methoxycarbonyl)amino)-3-methylbutanoyl)-2-azabicyclo[3.1.0]hex-3-yl)-1H-benzimidazol-5-yl)-1,3-butadiyn-1-yl)-1H-benzimidazol-2-yl)-2-azabicyclo[3.1.0]hex-2-yl)carbonyl)-2-methylpropyl)carbamate]
- EC50 (Hepatitis C virus): < 4.57 nM

SMILES: COC(=O)N[C@H](C(=O)N1[C@@H]2C[C@@H]2C[C@H]1c1nc2cc(Oc3cccc(-c4ccc5[nH]c([C@@H]6C[C@H]7C[C@H]7N6C(=O)[C@@H](NC(=O)OC)C(C)C)nc5c4)c3)ccc2[nH]1)C(C)C [Example V1, Methyl((1S)-1-(((1R,3S,5R)-3-(5-(3-(2-((1R,3S,5R)-2-((2S)-2-((methoxycarbonyl)amino)-3-methylbutanoyl)-2-azabicyclo[3.1.0]hex-3-yl)-1H-benzimidazol-5-yl)phenoxy)-1H-benzimidazol-2-yl)-2-azabicyclo[3.1.0]hex-2-yl)carbonyl)-2-methylpropyl)carbamate]
- EC50 (Hepatitis C virus): < 4.57 nM

SMILES: COC(=O)N[C@@H](C)C(=O)N1[C@@H]2C[C@@H]2C[C@H]1c1nc2cc(Oc3cccc(-c4ccc5[nH]c([C@@H]6C[C@H]7C[C@H]7N6C(=O)[C@H](C)NC(=O)OC)nc5c4)c3)ccc2[nH]1 [Example V2, methyl ((1S)-2-((1R,3S,5R)-3-(5-(3-((2-((1R,3S,5R)-2-(N-(methoxycarbonyl)-L-alanyl)-2-azabicyclo[3.1.0]hex-3-yl)-1H-benzimidazol-5-yl)oxy)phenyl)-1H-benzimidazol-2-yl)-2-azabicyclo[3.1.0]hex-2-yl)-1-methyl-2-oxoethyl) carbamate]
- EC50: < 4.57 nM

SMILES: COC(=O)N[C@@H](C(=O)N1[C@@H]2C[C@@H]2C[C@H]1c1nc2cc(Oc3cccc(-c4ccc5[nH]c([C@@H]6C[C@H]7C[C@H]7N6C(=O)[C@H](NC(=O)OC)C(C)C)nc5c4)c3)ccc2[nH]1)C(C)C [Example V3, methyl ((1R)-1-(((1R,3S,5R)-3-(5-(3-(2-((1R,3S,5R)-2-((2R)-2-((methoxycarbonyl)amino)-3-methylbutanoyl)-2-azabicyclo[3.1.0]hex-3-yl)-1H-benzimidazol-5-yl)phenoxy)-1H-benzimidazol-2-yl)-2-azabicyclo[3.1.0]hex-2-yl)carbonyl)-2-methylpropyl) carbamate]
- EC50: 4.57 to 99 nM

SMILES: COC(=O)NC(C(=O)N1[C@@H]2C[C@@H]2C[C@H]1c1nc2cc(Oc3cccc(-c4ccc5[nH]c([C@@H]6C[C@H]7C[C@H]7N6C(=O)C(NC(=O)OC)c6ccccc6)nc5c4)c3)ccc2[nH]1)c1ccccc1 (stereo partly drawn) [Example V4, methyl (2-((1R,3S,5R)-3-(5-(3-((2-((1R,3S,5R)-2-(((methoxycarbonyl)amino)(phenyl)acetyl)-2-azabicyclo[3.1.0]hex-3-yl)-1H-benzimidazol-5-yl)oxy)phenyl)-1H-benzimidazol-2-yl)-2-azabicyclo[3.1.0]hex-2-yl)-2-oxo-1-phenylethyl) carbamate]
- EC50: < 4.57 nM

SMILES: COC(=O)NC(C(=O)N1[C@@H]2C[C@@H]2C[C@H]1c1nc2cc(Oc3cccc(-c4ccc5[nH]c([C@@H]6C[C@H]7C[C@H]7N6C(=O)C(NC(=O)OC)c6ccccc6)nc5c4)c3)ccc2[nH]1)c1ccccc1 (stereo partly drawn) [Example V5, methyl (2-((1R,3S,5R)-3-(5-(3-((2-((1R,3S,5R)-2-(((methoxycarobnyl)amino)phenyl)acetyl)-2-azabicyclo[3.1.0]hex-3-yl)-1H-benzimidazol-5-yl)oxy)phenyl)-1H-benzimidazol-2-yl)-2-azabicyclo[3.1.0]hex-2-yl)-2-oxo-1-phenylethyl) carbamate]
- EC50: < 4.57 nM

SMILES: COC(=O)N[C@H](C(=O)N1[C@@H]2C[C@@H]2C[C@H]1c1nc2cc(-c3ccc(Oc4cccc5[nH]c([C@@H]6C[C@H]7C[C@H]7N6C(=O)[C@@H](NC(=O)OC)C(C)C)nc45)cc3)ccc2[nH]1)C(C)C [Example V6, Methyl((1S)-1-(((1R,3S,5R)-3-(4-(4-(2-((1R,3S,5R)-2-((2S)-2-((methoxycarbonyl)amino)-3-methylbutanoyl)-2-azabicyclo[3.1.0]hex-3-yl)-1H-benzimidazol-5-yl)phenoxy)-1H-benzimidazol-2-yl)-2-azabicyclo[3.1.0]hex-2-yl)carbonyl)-2-methylpropyl)carbamate]
- EC50 (Hepatitis C virus): < 4.57 nM
